Data reported in US20100298141A1, “SUBSTITUTED PYRIDINE N-OXIDE HERBICIDES” (E. I. DU PONT DE NEMOURS AND COMPANY, priority 2007, published 2010).

Legend:
common ragweed = assay: Test C pre-/postemergence test; assay type: in vivo, Ambrosia elation
Procedure, shortened: (§1)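 Compounds in a non-phytotoxic solvent with surfactant applied preemergence to seeded pots and, at the same time, postemergence to plants 2–18 cm tall (1- to 4-leaf stage). Paddy tests: pots flooded to 3 cm, compound applied into the water, depth held throughout.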

lambsquarters = assay: Test C pre-/postemergence test; assay type: in vivo, Chenopodium album; conditions: for Plant response rating, Lambsquarters: 31 g ai/ha, scale 0 to 100 (0 no effect, 100 complete control)
Procedure, shortened: as §1

wheat = assay: Test A pre-/postemergence greenhouse test; assay type: in vivo, Triticum aestivum; conditions: for Plant response rating, Wheat: 0 to 100 scale where 0 is no effect and 100 is complete control; for Wheat plant response rating: 0 to 100 scale
Procedure, shortened: (§2)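 Pre: directed soil spray on seeded loam/sand. Post: foliar spray, plants 2–10 cm, 1–2 leaf stage, applied concurrently. Vehicle: non-phytotoxic solvent + surfactant. Greenhouse ~10 d; visual injury rating vs untreated controls.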

giant foxtail [1] = assay: Test A pre-/postemergence greenhouse test; assay type: in vivo, Setaria faberi; conditions: for Plant response rating, Foxtail, Giant: 0 to 100 scale where 0 is no effect and 100 is complete control; for Foxtail, Giant plant response rating: 0 to 100 scale
Procedure, shortened: as §2

johnsongrass = assay: Test C pre-/postemergence test; assay type: in vivo, Sorghum halepense; conditions: for Plant response rating, Johnsongrass: 31 g ai/ha, scale 0 to 100 (0 no effect, 100 complete control)
Procedure, shortened: as §1

eastern black nightshade = assay: Test C pre-/postemergence test; assay type: in vivo, Solanum ptycanthum; conditions: for Plant response rating, Nightshade: 31 g ai/ha, scale 0 to 100 (0 no effect, 100 complete control)
Procedure, shortened: as §1

wild oat = assay: Test C pre-/postemergence test; assay type: in vivo, Avena fatua; conditions: for Plant response rating, Oat, Wild: 31 g ai/ha, scale 0 to 100 (0 no effect, 100 complete control)
Procedure, shortened: as §1

Surinam grass = assay: Test C pre-/postemergence test; assay type: in vivo, Brachiaria decumbens; conditions: for Plant response rating, Surinam Grass: 31 g ai/ha, scale 0 to 100 (0 no effect, 100 complete control)
Procedure, shortened: as §1

velvetleaf [2] = assay: Test C pre-/postemergence test; assay type: in vivo, Abutilon theophrasti; conditions: for Plant response rating, Velvetleaf: 31 g ai/ha, scale 0 to 100 (0 no effect, 100 complete control)
Procedure, shortened: as §1

redroot pigweed = assay: Test A pre-/postemergence greenhouse test; assay type: in vivo, Amaranthus retroflexus; conditions: for Plant response rating, Pigweed: 0 to 100 scale where 0 is no effect and 100 is complete control; for Pigweed plant response rating: 0 to 100 scale
Procedure, shortened: as §2

velvetleaf [3] = assay: Test A pre-/postemergence greenhouse test; assay type: in vivo, Abutilon theophrasti; conditions: for Plant response rating, Velvetleaf: 0 to 100 scale where 0 is no effect and 100 is complete control; for Velvetleaf plant response rating: 0 to 100 scale
Procedure, shortened: as §2

giant foxtail [4] = assay: Test C pre-/postemergence test; assay type: in vivo, Setaria faberii; conditions: for Plant response rating, Foxtail, Giant: 31 g ai/ha, scale 0 to 100 (0 no effect, 100 complete control)
Procedure, shortened: as §1

rice = assay: Test C flooded paddy test; assay type: in vivo, Oryza sativa; conditions: Flood
Procedure, shortened: (§3)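 Test compounds are applied straight into paddy water held 3 cm above the soil surface, with that flood maintained for the whole test. After 13 to 15 days in the greenhouse, each species is scored visually relative to controls.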

duck salad = assay: Test C flooded paddy test; assay type: in vivo, Heteranthera limosa; conditions: Flood
Procedure, shortened: as §3

corn = assay: Test A pre-/postemergence greenhouse test; assay type: in vivo, Zea mays; conditions: for Plant response rating, Corn: 0 to 100 scale where 0 is no effect and 100 is complete control; for Corn plant response rating: 0 to 100 scale
Procedure, shortened: as §2

barnyardgrass = assay: Test C flooded paddy test; assay type: in vivo, Echinochloa crus-galli; conditions: Flood
Procedure, shortened: as §3

bermudagrass = assay: Test C pre-/postemergence test; assay type: in vivo, Cynodon dactylon; conditions: for Plant response rating, Bermudagrass: 31 g ai/ha
Procedure, shortened: as §1

Goosegrass = assay: Test C pre-/postemergence test; assay type: in vivo, Eleusin indica; conditions: for Plant response rating, Goosegrass: 31 g ai/ha, scale 0 to 100 (0 no effect, 100 complete control)
Procedure, shortened: as §1

[5] = 125 g ai/ha, preemergence, scale 0 (no effect) to 100 (complete control)
[6] = preemergence, 250 g ai/ha, scale 0 (no effect) to 100 (complete control)
[7] = 62 g ai/ha, Preemergence, scale 0 to 100
[8] = Postemergence, 500 g ai/ha, 0 is no effect, 100 is complete control
[9] = Preemergence, 125 g ai/ha, 0 no effect, 100 complete control
[10] = Preemergence, 500 g ai/ha, 0 no effect, 100 complete control
[11] = 62 g ai/ha, scale 0 to 100 (0 no effect, 100 complete control)
[12] = 250 g ai/ha, scale 0 to 100, 0 no effect, 100 complete control, 13 to 15 days
[13] = 62 g ai/ha, Preemergence, scale 0 to 100 (0 no effect, 100 complete control)
[14] = Preemergence, scale 0 to 100 (0 no effect, 100 complete control)

CC(Oc1c(C[S+]([O-])c2ccc(Cl)c[n+]2[O-])c(C(F)(F)F)nn1C)C(F)(F)F (stereo not drawn) [Compound 87]
Ragweed plant response rating (common ragweed; [5]): 70
Ragweed plant response rating (common ragweed; [6]): 80
Lambsquarters plant response rating (lambsquarters; [7]): 85
Lambsquarters plant response rating (lambsquarters; [5]): 100
Plant response rating, Lambsquarters (lambsquarters; Preemergence): 60
Lambsquarters plant response rating (lambsquarters; [6]): 100
Plant response rating, Wheat (wheat; Postemergence, 125 g ai/ha): 60
Wheat plant response rating (wheat; [8]): 70
Wheat plant response rating (wheat; [9]): 70
Wheat plant response rating (wheat; [10]): 100
Plant response rating, Foxtail, Giant (giant foxtail [1]; Postemergence, 125 g ai/ha): 90
Foxtail, Giant plant response rating (giant foxtail [1]; [8]): 90
Foxtail, Giant plant response rating (giant foxtail [1]; [9]): 90
Plant response rating, Foxtail, Giant (giant foxtail [1]; Preemergence, 500 g ai/ha): 100
Johnsongrass plant response rating (johnsongrass; [7]): 100
Johnsongrass plant response rating (johnsongrass; [5]): 100
Plant response rating, Johnsongrass (johnsongrass; Preemergence): 90
Johnsongrass plant response rating (johnsongrass; [6]): 100
Nightshade plant response rating (eastern black nightshade; [7]): 80
Nightshade plant response rating (eastern black nightshade; [5]): 95
Plant response rating, Nightshade (eastern black nightshade; Preemergence): 80
Nightshade plant response rating (eastern black nightshade; [6]): 100
Oat, Wild plant response rating (wild oat; [7]): 90
Oat, Wild plant response rating (wild oat; [5]): 90
Plant response rating, Oat, Wild (wild oat; Preemergence): 80
Oat, Wild plant response rating (wild oat; [6]): 100
Surinam Grass plant response rating (Surinam grass; [7]): 95
Surinam Grass plant response rating (Surinam grass; [5]): 95
Plant response rating, Surinam Grass (Surinam grass; Preemergence): 80
Surinam Grass plant response rating (Surinam grass; [6]): 98
Velvetleaf plant response rating (velvetleaf [2]; [7]): 5
Velvetleaf plant response rating (velvetleaf [2]; [5]): 70
Plant response rating, Velvetleaf (velvetleaf [2]; Preemergence): 0
Velvetleaf plant response rating (velvetleaf [2]; [6]): 95
Plant response rating, Pigweed (redroot pigweed; Postemergence, 125 g ai/ha): 50
Pigweed plant response rating (redroot pigweed; [8]): 100
Pigweed plant response rating (redroot pigweed; [9]): 90
Plant response rating, Pigweed (redroot pigweed; Preemergence, 500 g ai/ha): 100
Plant response rating, Velvetleaf (velvetleaf [3]; Postemergence, 125 g ai/ha): 70
Velvetleaf plant response rating (velvetleaf [3]; [8]): 80
Velvetleaf plant response rating (velvetleaf [3]; [9]): 80
Velvetleaf plant response rating (velvetleaf [3]; [10]): 100
Foxtail, Giant plant response rating (giant foxtail [4]; [7]): 95
Foxtail, Giant plant response rating (giant foxtail [4]; [5]): 100
Plant response rating, Foxtail, Giant (giant foxtail [4]; Preemergence): 85
Foxtail, Giant plant response rating (giant foxtail [4]; [6]): 100
Plant response rating, Rice (rice; [11]): 30
Plant response rating, Rice (rice; [12]): 90
Plant response rating, Ducksalad (duck salad; [11]): 50
Plant response rating, Ducksalad (duck salad; [12]): 100
Plant response rating, Corn (corn; Postemergence, 125 g ai/ha): 60
Corn plant response rating (corn; [8]): 70
Corn plant response rating (corn; [9]): 40
Plant response rating, Corn (corn; Preemergence, 500 g ai/ha): 90
Plant response rating, Barnyardgrass (barnyardgrass; [11]): 30
Plant response rating, Barnyardgrass (barnyardgrass; [12]): 90
Bermudagrass plant response rating (bermudagrass; [13]): 100
Bermudagrass plant response rating (bermudagrass; [5]): 100
Plant response rating, Bermudagrass (bermudagrass; [14]): 100
Bermudagrass plant response rating (bermudagrass; [6]): 100
Goosegrass plant response rating (Goosegrass; [7]): 100
Goosegrass plant response rating (Goosegrass; [5]): 100
Plant response rating, Goosegrass (Goosegrass; Preemergence): 98
Goosegrass plant response rating (Goosegrass; [6]): 100

Cc1cc[n+]([O-])c(S(=O)(=O)Cc2c(C(F)(F)F)nn(C)c2OC(C)C(F)(F)F)c1 (stereo not drawn) [Compound 96]
Ragweed plant response rating (common ragweed; [7]): 20
Ragweed plant response rating (common ragweed; [5]): 100
Plant response rating, Ragweed (common ragweed; Preemergence, 31 g ai/ha, scale 0 to 100 (0 no effect, 100 complete control)): 20
Ragweed plant response rating (common ragweed; [6]): 100
Lambsquarters plant response rating (lambsquarters; [7]): 100
Lambsquarters plant response rating (lambsquarters; [5]): 100
Plant response rating, Lambsquarters (lambsquarters; Preemergence): 50
Lambsquarters plant response rating (lambsquarters; [6]): 100
Plant response rating, Wheat (wheat; Postemergence, 125 g ai/ha): 50
Wheat plant response rating (wheat; [8]): 70
Wheat plant response rating (wheat; [9]): 20
Wheat plant response rating (wheat; [10]): 80
Plant response rating, Foxtail, Giant (giant foxtail [1]; Postemergence, 125 g ai/ha): 70
Foxtail, Giant plant response rating (giant foxtail [1]; [8]): 80
Foxtail, Giant plant response rating (giant foxtail [1]; [9]): 100
Plant response rating, Foxtail, Giant (giant foxtail [1]; Preemergence, 500 g ai/ha): 100
Johnsongrass plant response rating (johnsongrass; [7]): 95
Johnsongrass plant response rating (johnsongrass; [5]): 100
Plant response rating, Johnsongrass (johnsongrass; Preemergence): 70
Johnsongrass plant response rating (johnsongrass; [6]): 100
Nightshade plant response rating (eastern black nightshade; [7]): 85
Nightshade plant response rating (eastern black nightshade; [5]): 95
Plant response rating, Nightshade (eastern black nightshade; Preemergence): 75
Nightshade plant response rating (eastern black nightshade; [6]): 100
Oat, Wild plant response rating (wild oat; [7]): 80
Oat, Wild plant response rating (wild oat; [5]): 95
Plant response rating, Oat, Wild (wild oat; Preemergence): 70
Oat, Wild plant response rating (wild oat; [6]): 98
Surinam Grass plant response rating (Surinam grass; [7]): 80
Surinam Grass plant response rating (Surinam grass; [5]): 100
Plant response rating, Surinam Grass (Surinam grass; Preemergence): 75
Surinam Grass plant response rating (Surinam grass; [6]): 100
Velvetleaf plant response rating (velvetleaf [2]; [7]): 30
Velvetleaf plant response rating (velvetleaf [2]; [5]): 40
Plant response rating, Velvetleaf (velvetleaf [2]; Preemergence): 0
Velvetleaf plant response rating (velvetleaf [2]; [6]): 90
Plant response rating, Pigweed (redroot pigweed; Postemergence, 125 g ai/ha): 30
Pigweed plant response rating (redroot pigweed; [8]): 80
Pigweed plant response rating (redroot pigweed; [9]): 90
Plant response rating, Pigweed (redroot pigweed; Preemergence, 500 g ai/ha): 90
Plant response rating, Velvetleaf (velvetleaf [3]; Postemergence, 125 g ai/ha): 50
Velvetleaf plant response rating (velvetleaf [3]; [8]): 60
Velvetleaf plant response rating (velvetleaf [3]; [9]): 40
Velvetleaf plant response rating (velvetleaf [3]; [10]): 100
Foxtail, Giant plant response rating (giant foxtail [4]; [7]): 80
Foxtail, Giant plant response rating (giant foxtail [4]; [5]): 95
Plant response rating, Foxtail, Giant (giant foxtail [4]; Preemergence): 80
Foxtail, Giant plant response rating (giant foxtail [4]; [6]): 98
Plant response rating, Rice (rice; [11]): 0
Plant response rating, Rice (rice; [12]): 20
Plant response rating, Ducksalad (duck salad; [11]): 0
Plant response rating, Ducksalad (duck salad; [12]): 55
Plant response rating, Corn (corn; Postemergence, 125 g ai/ha): 20
Corn plant response rating (corn; [9]): 0
Plant response rating, Corn (corn; Preemergence, 500 g ai/ha): 50
Plant response rating, Barnyardgrass (barnyardgrass; [11]): 0
Plant response rating, Barnyardgrass (barnyardgrass; [12]): 0
Bermudagrass plant response rating (bermudagrass; [13]): 100
Bermudagrass plant response rating (bermudagrass; [5]): 100
Plant response rating, Bermudagrass (bermudagrass; [14]): 85
Bermudagrass plant response rating (bermudagrass; [6]): 100
Goosegrass plant response rating (Goosegrass; [7]): 100
Goosegrass plant response rating (Goosegrass; [5]): 100
Plant response rating, Goosegrass (Goosegrass; Preemergence): 95
Goosegrass plant response rating (Goosegrass; [6]): 100
